Legend:
[1] = tested on: Moorslede soil; assay: Greenhouse gas emissions from soil fertilized with ammonium, Moorslede soil
Procedure: (§1) Two agricultural soils coming from fields in Moorslede and Sint-Laureins were used. Screw top vials were filled with 10 g soil. Vials were sealed with Parafilm and preincubated at 21° C. in the dark for 5 days. After pre-incubation, vials were ventilated using a fan. The 100 μL of a 1 mM compound solution (10% DMSO) was added, immediately followed by the addition of 100 μL 200 mM NH4Cl. Vials were closed gastight and 5 mL synthetic air was added to the headspace using a plastic syringe, followed by the transfer of 5 mL headspace to an evacuated 3 mL exetainer. Vials were incubated at 21° C. in the dark and background NO concentration was noted. At each sampling timepoint, 5 mL synthetic air was added again to the headspace using a plastic syringe, again followed by the transfer of 5 mL headspace to an evacuated 3 mL exetainer. Vials were ventilated and closed again, and new gas samples were transferred to texetainers like before. N2O, CO2, CH4 in the exetainers were measured via gas chromatography. NO concentration was measured directly.
(§2) To further confirm the inhibitory effect of the new class of nitrification inhibitors on nitrogen losses, gas emissions from soil fertilized with ammonium and treated with 1,3-thiazolidine-2-thione were captured. NO, N2O, CO2 and CH4 was measured.

[2] = tested on: Sint-Laureins soil; assay: Greenhouse gas emissions from soil fertilized with ammonium, Sint-Laureins soil
Procedure: as §1, §2

[3] = tested on: Moorslede soil; assay: In soil nitrification inhibition assay, Moorslede soil; conditions: soil, 120 h, 5 days
Procedure: Top layer (0 to 10 cm) soil samples were collected from different fields in Belgium (Merelbeke and Moorslede). Vegetation on the field trial was removed and samples were taken from different plots. All soil samples were mixed and sieved (mesh size 2.8 mm) to filter large debris and homogenize soil. The soil was stored at 5° C. in plastic containers covered with Saran foil to prevent changes in microbial community composition and to maintain the original soil water content.
Soil water content was determined by drying 20 g soil for 48 h in a 60° C. oven and measuring weight before and after drying. Based on the soil water content (±20%), compound solutions were prepared so that addition of 200 μl compound and 200 μl NH4Cl solution would result in a final compound concentration of 50 μM and a final NH4^+ concentration of 10 mM. Per treatment, 5 small pots were filled with 20 g soil. Next, the soil was treated first with the respective compound solution and then with the NH4Cl solution. Per tray, positive (50 μM DMP) and negative controls (DMSO) were included. Pots were incubated at 21° C. (6 a.m. to 10 p.m. light) for 7 days. Demineralized water was added to the soil every 2 to 3 days to a soil weight of 20 g. In the end, each sample of 20 g soil was dissolved in 100 ml 1M KCl and shaken for 1 hour, followed by filtration through Whatmann® paper. The filtrate was used to measure pH, NH4^+ and NO3− concentrations.
A set of examples was tested in the same conditions (Moorslede soil, 3 days of incubation) at a concentration of 50 μM.
Another set of examples was tested in different concentrations in Moorslede soil as well, and were sampled after 5 days.
The effect of 3H-1,3-thiazole-2-thione was tested in soil in accordance with the test described above in section 3.3.

[4] = tested on: Nitrosospira multiformis; assay: Nitrification inhibition assay with Nitrosospira multiformis (nitrite level after 24 h); assay type: cell-based; conditions: Nitrosospira multiformis
Procedure: (§3) The compounds of formula (I) and (II) and (III)/(IV) were tested for their nitrification inhibition effect in two screens, using assays with the nitrifying bacteria N. europaea and N. multiformis. In practice, ammonium and candidate nitrification inhibitors (at 100 μM) were added to a dense bacterial culture in multiwell culture plates and after 24 h of incubation, the nitrite level was measured. To normalize for differences between batches of cultures and multiwell culture plates, for each well a relative nitrification was calculated that was normalized towards both the negative and positive controls (see “Material and Methods” below for full details).
(§4) Nitrite (NO2−) was measured using the Griess reagent (Product number: G4410, Griess reagent (modified), Sigma-Aldrich). Equal volumes of the sample or a diluted sample and the Griess reagent were mixed a transparent flat bottom multi-well plate and incubated in the dark at room temperature for 10 minutes. Absorbance values at 540 nm were measured spectrophotometrically (EnVision, Perkin Elmer®) and used to calculate the [NO2−] by use of a standard curve.
Cultures were first 5 times overconcentrated in fresh 181-medium by centrifugation (4000 rpm, 15 min, 5° C.) in 50 mL centrifuge tubes (Cat. No. 430829, CentriStar™ Conical Centrifuge Tubes, Corning®). Per batch, all the cultures were pooled in one sterile Schott bottle and subsequently dispensed in 384-well plates (Cat. No. 781086, CELLSTAR® plate, Greiner BioOne; 50 μl/well) by use of a dispenser (Multidrop™ Combi Reagent Dispenser, Thermo Scientific™) that was first flushed with 181-medium. 0.5 μl of 99.99% DMSO (negative control—final concentration […] was added to the outer two columns on the left side of the plate and 0.5 μl of 10 mM DMP (3,4-dimethylpyrazole, positive control—final concentration 100 μM) was added to the outer two columns on the right side manually. Finally, 0.5 μl of candidate nitrification inhibitors (5 mM stock solutions in 99.99% DMSO—final concentration 50 μM) were added to the central wells using a pin tool on a Tecan robot (Freedom EVO®, Tecan). In between additions, the pins were washed in sequence with 99.5% DMSO, MilliQ water and 100% ethanol and air-dried. All plates were separately wrapped in Parafilm. Stacks of 4 plates were put on top of a 96-well plate filled with 100 μl MilliQ per well, covered with aluminum foil and shaken (±150 rpm) at 30° C. 24 h later, NO2− production was assessed. For this, the samples were first 100 times diluted by pipetting 3 μl of samples into 300 μl fresh growth medium in intermediate plates (Cat. No. 353077, Falcon® 96-well Clear Round Bottom Microplate, Corning®) to then mix 15 μl of the diluted samples with 15 μl Griess reagent in the wells of a transparent, flat bottom 384-well plate (Cat. No. X^7001, Low Profile Microplate, Molecular Devices) that was measured spectrophotometrically at 540 nm (EnVision, Perkin Elmer®).
(§5) To assess the efficacy of the compounds (in terms of nitrification inhibition) and to enable comparison between plates and batches of cultures, we calculated the relative nitrification. More in detail, all nitrite results were normalized towards both a negative control, containing no compound, and a positive control, containing the benchmark (100 μM DMP), using Equation 1. This normalization was done per multi-well plate and each plate contained 32 positive and 32 negative controls.
IC50 values, that is the concentration that inhibits 50% of the nitrification, were calculated after fitting a logistic curve to 8-point dose response data, using doses between 2 and 100 μM with 1.75 fold steps. If a concentration of 2 μM already inhibited nitrification, the IC50 value could not be calculated. In that case, IC50 values represent the dose that gives inhibition closest to 50%.
The compounds of formula (I) and (II) were tested for their nitrification inhibition effect in two screens, using assays with the nitrifying bacteria N. europaea and N. multiformis. […]

[5] = tested on: Nitrosomonas europaea; assay: Nitrification inhibition assay with Nitrosomonas europaea (nitrite level after 24 h); assay type: cell-based; conditions: Nitrosomonas europaea
Procedure: as §3, §4
To prepare a high-throughput nitrification inhibition assay using N. europaea, late-log phase cultures were subcultivated two days before the assay. Just before the assay, the cultures were 5 times overconcentrated with fresh growth medium after centrifugation (4000 rpm, 15 min, 5° C.) in 50 mL centrifuge tubes (Cat. No. 430829, CentriStar™ Conical Centrifuge Tubes, Corning®). Per batch, all the cultures were pooled in one sterile Schott bottle and subsequently dispensed into 384-well plates (Cat. No. 781086, CELL-STAR® plate, Greiner Bio-One; 50 μl/well) by use of a dispenser (Multidrop™ Combi Reagent Dispenser, Thermo Scientific™) that was first flushed with growth medium. Specifically for the high-throughput screen for new nitrification inhibitors, 0.5 μl of 99.99% DMSO (negative control—final concentration 1%) was added to the outer two columns on the left side of the plate and 0.5 μl of 10 mM DMP (3,4-dimethylpyrazole, positive control—final concentration 100 μM) was added to the outer two columns on the right side manually. Finally, 0.5 μl of candidate nitrification inhibitors (5 mM stock solutions in 99.99% DMSO—final concentration 50 μM) were added to the central wells using a pin tool on a Tecan robot (Freedom EVO®, Tecan). In between additions, the pins were washed in sequence with 99.5% DMSO, MilliQ water and 100% ethanol and air-dried. All plates were separately wrapped in Parafilm. Stacks of 4 plates were put on top of a 96-well plate filled with 100 μl MilliQ per well, covered with aluminum foil and shaken at 150 rpm at 28° C. 24 h later, NO2− production was assessed. For this, the samples were first 200 times diluted by pipetting 1.5 μl of samples into 300 μl of fresh growth medium in intermediate plates (Cat. No. 353077, Falcon® 96-well Clear Round Bottom Microplate, Corning®), to then mix 15 μl of the diluted samples with 15 μl Griess reagent in the wells of a transparent, flat bottom 384-well plate (Cat. No. X^7001, Low Profile Microplate, Molecular Devices) that was measured spectrophotometrically at 540 nm (EnVision, Perkin Elmer®).
as §5
IC50 values, that is the concentration that inhibits 50% of the nitrification, were calculated after fitting a logistic curve to 8-point dose response data, using doses between 2 and 100 μM with 1.75 fold steps. […]

[6] = 8-point dose response, 2 to 100 μM, read-out: IC50

S=C1NCCS1 [Example 3, 1,3-thiazolidine-2-thione]
Cumulative emission at indicated timepoint [ppm] ([1]; CH4, 4 h): 0.20 ppm
Cumulative emission at indicated timepoint [ppm] ([1]; CH4, 24 h): 0.38 ppm
Cumulative emission at indicated timepoint [ppm] ([1]; CH4, 48 h): 0.38 ppm
Cumulative emission at indicated timepoint [ppm] ([1]; CH4, 72 h): 0.51 ppm
Cumulative emission at indicated timepoint [ppm] ([1]; CH4, 99 h): 0.51 ppm
Cumulative emission at indicated timepoint [ppm] ([1]; CO2, 4 h): 619 ppm
Cumulative emission at indicated timepoint [ppm] ([1]; CO2, 24 h): 2385 ppm
Cumulative emission at indicated timepoint [ppm] ([1]; CO2, 48 h): 4261 ppm
Cumulative emission at indicated timepoint [ppm] ([1]; CO2, 72 h): 6195 ppm
Cumulative emission at indicated timepoint [ppm] ([1]; CO2, 99 h): 8131 ppm
Cumulative emission at indicated timepoint [ppm] ([1]; N2O, 4 h): 0 ppm
Cumulative emission at indicated timepoint [ppm] ([1]; N2O, 24 h): 0 ppm
Cumulative emission at indicated timepoint [ppm] ([1]; N2O, 48 h): 0 ppm
Cumulative emission at indicated timepoint [ppm] ([1]; N2O, 72 h): 0 ppm
Cumulative emission at indicated timepoint [ppm] ([1]; N2O, 99 h): 0 ppm
Cumulative emission at indicated timepoint [ppm] ([1]; NO, 4 h): 25 ppm
Cumulative emission at indicated timepoint [ppm] ([1]; NO, 24 h): 28 ppm
Cumulative emission at indicated timepoint [ppm] ([1]; NO, 48 h): 43 ppm
Cumulative emission at indicated timepoint [ppm] ([1]; NO, 72 h): 65 ppm
Cumulative emission at indicated timepoint [ppm] ([1]; NO, 99 h): 65 ppm
effect on CH4 emission, in words ([1]; cumulative, incubation of 99 h): No significant effects
effect on CO2 emission, in words ([1]; cumulative, incubation of 99 h): strongly reduced
effect on N2O emission, in words ([1]; cumulative, incubation of 99 h): strongly reduced
effect on NO emission, in words ([1]; cumulative, incubation of 99 h): strongly reduced
Cumulative emission at indicated timepoint [ppm] ([2]; CH4, 4 h): 0.00 ppm
Cumulative emission at indicated timepoint [ppm] ([2]; CH4, 24 h): 0.10 ppm
Cumulative emission at indicated timepoint [ppm] ([2]; CH4, 48 h): 0.16 ppm
Cumulative emission at indicated timepoint [ppm] ([2]; CH4, 72 h): 0.25 ppm
Cumulative emission at indicated timepoint [ppm] ([2]; CH4, 99 h): 0.25 ppm
Cumulative emission at indicated timepoint [ppm] ([2]; CO2, 4 h): 372 ppm
Cumulative emission at indicated timepoint [ppm] ([2]; CO2, 24 h): 1179 ppm
Cumulative emission at indicated timepoint [ppm] ([2]; CO2, 48 h): 2094 ppm
Cumulative emission at indicated timepoint [ppm] ([2]; CO2, 72 h): 3101 ppm
Cumulative emission at indicated timepoint [ppm] ([2]; CO2, 99 h): 4168 ppm
Cumulative emission at indicated timepoint [ppm] ([2]; N2O, 4 h): 0 ppm
Cumulative emission at indicated timepoint [ppm] ([2]; N2O, 24 h): 0 ppm
Cumulative emission at indicated timepoint [ppm] ([2]; N2O, 48 h): 1 ppm
Cumulative emission at indicated timepoint [ppm] ([2]; N2O, 72 h): 1 ppm
Cumulative emission at indicated timepoint [ppm] ([2]; N2O, 99 h): 2 ppm
Cumulative emission at indicated timepoint [ppm] ([2]; NO, 4 h): 17 ppm
Cumulative emission at indicated timepoint [ppm] ([2]; NO, 24 h): 52 ppm
Cumulative emission at indicated timepoint [ppm] ([2]; NO, 48 h): 86 ppm
Cumulative emission at indicated timepoint [ppm] ([2]; NO, 72 h): 140 ppm
Cumulative emission at indicated timepoint [ppm] ([2]; NO, 99 h): 161 ppm
effect on CH4 emission, in words ([2]; cumulative, incubation of 99 h): No significant effects
effect on CO2 emission, in words ([2]; cumulative, incubation of 99 h): strongly reduced
effect on N2O emission, in words ([2]; cumulative, incubation of 99 h): strongly reduced
effect on NO emission, in words ([2]; cumulative, incubation of 99 h): strongly reduced
inhibition at 20 µM ([3]; 20 μM, read-out: Average % nitrification inhibition in soil (5 days of incubation, Moorslede soil) at 20 μM): 7%

CSc1ncco1 [Example 39]
IC50 [4, 6]: > 100 µM
activity at 100 µM ([4]; tested concentration 100 μM, 24 h, normalized to DMSO (100%) and 100 μM DMP (0%), read-out: Nitrification at tested concentration (0 = maximum activity)): 52%
IC50 [5, 6]: 26 µM
activity at 100 µM ([5]; tested concentration 100 μM, 24 h, normalized to DMSO (100%) and 100 μM DMP (0%), read-out: Nitrification (%) at tested concentration (0 = maximum activity)): 22%
inhibition at 50 µM ([3]; 50 μM, read-out: % Nitrification inhibition in soil (5 days of incubation, Moorslede soil) at indicated concentration): 62%

Reference: patent US20230416168A1 (EUROCHEM ANTWERPEN, priority 2020, published 2023)
